Values quoted from earlier work in patent US10858388B2, “Selective progesterone receptor modulator (SPRM) regimen” (BAYER PHARMA AKTIENGESELLSCHAFT, priority 2015, dated 2020).

Key:
endometrium = conditions: relatively low concentration, WO2009/134178; cited from earlier work
[1] = system: women with excessive uterine bleeding due to the presence of fibroids; conditions: 5 mg Ulipristal Acetate, cited from earlier work
fibroids = conditions: in vivo; cited from earlier work

COCC(=O)[C@@]1(OC(C)=O)CC[C@H]2[C@@H]3CCC4=CC(=O)CCC4=C3[C@@H](c3ccc(N(C)C)cc3)C[C@@]21C [CDB-4124]
Endometrium during treatment (endometrium): substantial thickening of the endometrium

CC(=O)O[C@]1(C(C)=O)CC[C@H]2[C@@H]3CCC4=CC(=O)CCC4=C3[C@@H](c3ccc(N(C)C)cc3)C[C@@]21C [Ulipristal Acetate]
≤2 ml, indicating Amenorrhea - (%), EoT 13 Weeks ([1]; 13 weeks): 75% | ≤2 ml, indicating Amenorrhea - no./total no., EoT 13 Weeks ([1]; 13 weeks): 70/93 | Amenorrhea (<2 ml) at EoT (%) 12 Weeks ([1]; data from Jacques Donnez et al): ~75%

CC#C[C@]1(O)CC[C@H]2[C@@H]3CCC4=CC(=O)CCC4=C3[C@@H](c3ccc(N(C)C)cc3)C[C@@]21C [mifepristone]
Size of fibroids and related symptoms (fibroids): decrease the size of fibroids and related symptoms
